This passage reports IC50 and IC90 results from ChEMBL document CHEMBL4483862, “Open-source discovery of chemical leads for next-generation chemoprotective antimalarials” (2018).

SMILES strings stand for the structures.

This experiment concerns Plasmodium berghei. Briefly: Luciferase/luciferin-expressing antifolate-resistant parasites were used to infect a culture of HepG2 cells that were pre-incubated with compounds. Infected hepatocytes emit light due to the luciferase reaction. Assay results are presented as the percent inhibition of light emission compared to control. […]. The experiment is classed as functional. Particulars: sporozoite; for IC90: read-out: LUCIFERASE INFECTION ASSAY - IC90.

On to `O=C(NCc1ccco1)/C(=C/c1cccc(C(F)(F)F)c1)c1nc2ccccc2[nH]1`, for which the IC90 – broadly, the concentration at which the effect reaches the 90% level – turned out to be 7.5 µM. Further, the IC50 – broadly, the concentration needed to halve the response being measured – (FFLUC_HILL_SLOPE 10.6, FFLUC_R_SQUARED 0.24, HEPG2TOX_HILL_SLOPE 4.32, HEPG2TOX_R_SQUARED 0.946, PBLUC_HILL_SLOPE 6.31, PBLUC_R_SQUARED 0.466, read-out: LUCIFERASE INFECTION ASSAY - IC50) is 5.3 µM.
For the compound `O=C(NCC(c1ccco1)N1CCCC1)c1ccc(Cl)c(S(=O)(=O)N2CCc3ccccc32)c1` (centres undefined), the IC90 was more than 10 µM. Where the note is “FFLUC_HILL_SLOPE 10.9, FFLUC_R_SQUARED 0.158, HEPG2TOX_HILL_SLOPE 3.24, HEPG2TOX_R_SQUARED 0.613, PBLUC_HILL_SLOPE 5.35, PBLUC_R_SQUARED 0.563, read-out: LUCIFERASE INFECTION ASSAY - IC50”, the IC50 is 7.08 µM.
On to `CCNC(=O)Cc1ccc(NC(=O)c2csc(Br)c2)cc1`, for which the IC90 was more than 10 µM. Also, the IC50 (FFLUC_HILL_SLOPE 10.6, FFLUC_R_SQUARED 0.0524, read-out: LUCIFERASE INFECTION ASSAY - IC50) is more than 10 µM.
Regarding `CCN(CC)CCn1c(NC(=O)c2cc3c(C)nn(Cc4ccccc4)c3s2)nc2ccccc21`, the IC90 came out at 5.29 µM. Further, the IC50 (FFLUC_HILL_SLOPE 11, FFLUC_R_SQUARED 0.377, PBLUC_HILL_SLOPE 1.67, PBLUC_R_SQUARED 0.43, read-out: LUCIFERASE INFECTION ASSAY - IC50) was 1.42 µM.
With `Cc1ccc(S(=O)(=O)c2ccc(C(F)(F)F)cc2[N+](=O)[O-])cc1`, the IC90 is more than 9.56 µM. For the same compound, the IC50 (FFLUC_HILL_SLOPE 11, FFLUC_R_SQUARED 0.463, read-out: LUCIFERASE INFECTION ASSAY - IC50) is more than 9.56 µM.
With `O=C(Nc1nc2ccccn2c1C(=O)NC1CCCC1)c1ccc(C(F)(F)F)cc1`, the IC90 is 0.325 µM. The IC50 (FFLUC_HILL_SLOPE 11.1, FFLUC_R_SQUARED 0.453, HEPG2TOX_HILL_SLOPE 0.561, HEPG2TOX_R_SQUARED 0.841, PBLUC_HILL_SLOPE 12.2, PBLUC_R_SQUARED 0.531, read-out: LUCIFERASE INFECTION ASSAY - IC50) stood at 0.271 µM.
With `Cc1ccccc1NC(=O)c1cc2ccccc2c(CN2CCC3(CC2)OCCO3)c1O`, the concentration for an effect of 90% (IC90) turned out to be 1.28 µM. Further, the IC50 (FFLUC_HILL_SLOPE 10.9, FFLUC_R_SQUARED 0.858, HEPG2TOX_HILL_SLOPE 2.82, HEPG2TOX_R_SQUARED 0.87, PBLUC_HILL_SLOPE 1.78, PBLUC_R_SQUARED 0.84, read-out: LUCIFERASE INFECTION ASSAY - IC50) turned out to be 0.373 µM.
Turning to `O=S(=O)(Nc1cc(C(F)(F)F)cc(C(F)(F)F)c1)c1cc(C(F)(F)F)cc(C(F)(F)F)c1`, the IC90 was determined as 4.66 µM. In addition, for the setting “FFLUC_HILL_SLOPE 10.6, FFLUC_R_SQUARED 0.544, PBLUC_HILL_SLOPE 1.62, PBLUC_R_SQUARED 0.523, read-out: LUCIFERASE INFECTION ASSAY - IC50”, the half-inhibitory concentration (IC50) was found to be 1.2 µM.
`O=C(Nc1nc2ccccn2c1C(=O)NC1CCCCC1)c1ccccc1Cl`: the IC90 was determined as 8.12 µM. Also, where the note is “FFLUC_HILL_SLOPE 10.6, FFLUC_R_SQUARED 0.389, HEPG2TOX_HILL_SLOPE 7.19, HEPG2TOX_R_SQUARED 0.725, PBLUC_HILL_SLOPE 14.8, PBLUC_R_SQUARED 0.156, read-out: LUCIFERASE INFECTION ASSAY - IC50”, the IC50 worked out at 7 µM.
`COc1ccc(C(=O)Nc2cc(Cl)ccc2N2CCCCC2)cc1S(=O)(=O)N(C)OC`: the IC90 is more than 10 µM. The IC50 (FFLUC_HILL_SLOPE 10.9, FFLUC_R_SQUARED 0.3, PBLUC_HILL_SLOPE 12.4, PBLUC_R_SQUARED 0.0122, read-out: LUCIFERASE INFECTION ASSAY - IC50) was more than 10 µM.
For the compound `CN(C(=O)COc1cc2ccccc2cc1C(=O)NCc1ccccc1)C1CCCCC1`, the IC90 is more than 10 µM. Further, the IC50 (FFLUC_HILL_SLOPE 11, FFLUC_R_SQUARED 0.0654, read-out: LUCIFERASE INFECTION ASSAY - IC50) was more than 10 µM.
As for `CCOC(=O)C1CCN(c2cc(C(F)(F)F)nc3c(F)cccc23)CC1`, the IC90 is more than 8.91 µM. The IC50 (FFLUC_HILL_SLOPE 11, FFLUC_R_SQUARED 0.219, read-out: LUCIFERASE INFECTION ASSAY - IC50) was more than 8.91 µM.
With `CC1C(=O)N(CC(O)COCc2ccccc2Cl)C(=O)N1c1ccccc1` (centres undefined), the IC90 is more than 10 µM. Further, for the setting “FFLUC_HILL_SLOPE 10.9, FFLUC_R_SQUARED 0.0106, read-out: LUCIFERASE INFECTION ASSAY - IC50”, the IC50 was more than 10 µM.
On to `Clc1cc2c(c3ncccc13)OCN(C1CCCC1)C2`, for which the IC90 stood at 2.79 µM. Where the note is “FFLUC_HILL_SLOPE 11.1, FFLUC_R_SQUARED 0.223, HEPG2TOX_HILL_SLOPE 2.6, HEPG2TOX_R_SQUARED 0.787, PBLUC_HILL_SLOPE 4.7, PBLUC_R_SQUARED 0.818, read-out: LUCIFERASE INFECTION ASSAY - IC50”, the IC50 stood at 1.75 µM.
As to `CCOc1cc(/C=C/C(=O)N(c2ccccc2)c2nc(-c3ccc(F)cc3)cs2)cc(Cl)c1OC`, the IC90 was more than 10 µM. For the same compound, the IC50 (FFLUC_HILL_SLOPE 10.9, FFLUC_R_SQUARED 0.679, read-out: LUCIFERASE INFECTION ASSAY - IC50) is more than 10 µM.
Turning to `O=C(Nc1ccccc1C(=O)OCC(=O)N1c2ccccc2Sc2ccccc21)c1ccco1`, the IC90 was more than 10 µM. Besides, the IC50 (FFLUC_HILL_SLOPE 10.6, FFLUC_R_SQUARED 0.388, PBLUC_HILL_SLOPE 2.08, PBLUC_R_SQUARED 0.607, read-out: LUCIFERASE INFECTION ASSAY - IC50) turned out to be 7.58 µM.
As to `Cn1c(NCc2ccccc2)nc2cnc(Nc3ccc(OC(F)(F)F)cc3)cc21`, the IC90 was 3.61 µM. Besides, the IC50 (FFLUC_HILL_SLOPE 10.9, FFLUC_R_SQUARED 0.015, PBLUC_HILL_SLOPE 2.54, PBLUC_R_SQUARED 0.635, read-out: LUCIFERASE INFECTION ASSAY - IC50) came out at 1.52 µM.
In the case of `CCCCNC(=O)c1c(NC(=O)c2ccc(F)cc2F)nc2ccc(C)cn12`, the IC90 came out at 3.01 µM. The IC50 (FFLUC_HILL_SLOPE 10.6, FFLUC_R_SQUARED 0.36, HEPG2TOX_HILL_SLOPE 2.09, HEPG2TOX_R_SQUARED 0.949, PBLUC_HILL_SLOPE 14.8, PBLUC_R_SQUARED 0.468, read-out: LUCIFERASE INFECTION ASSAY - IC50) worked out at 2.6 µM.
As to `O=C(CSCCS(=O)(=O)c1ccc(Cl)cc1)Nc1cc(C(F)(F)F)cc(C(F)(F)F)c1`, the IC90 was more than 6.52 µM. Moreover, the IC50 (FFLUC_HILL_SLOPE 10.6, FFLUC_R_SQUARED 0.485, read-out: LUCIFERASE INFECTION ASSAY - IC50) is more than 6.52 µM.
In the case of `COC(=O)c1cc(N/N=C2\C=CC(=O)c3ncccc32)cc(C(=O)OC)c1`, the IC90 is 3.38 µM. Further, where the note is “FFLUC_HILL_SLOPE 11, FFLUC_R_SQUARED 0.42, HEPG2TOX_HILL_SLOPE 0.866, HEPG2TOX_R_SQUARED 0.908, PBLUC_HILL_SLOPE 2.75, PBLUC_R_SQUARED 0.794, read-out: LUCIFERASE INFECTION ASSAY - IC50”, the IC50 stood at 1.52 µM.
For `O=C(c1cnc(N2CCCC2)s1)c1sc2cc(Cl)cc(Cl)c2c1Cl`, the IC90 is more than 10 µM. For the same compound, the IC50 (FFLUC_HILL_SLOPE 11, FFLUC_R_SQUARED 0.0847, HEPG2TOX_HILL_SLOPE 2.22, HEPG2TOX_R_SQUARED 0.924, PBLUC_HILL_SLOPE 1.87, PBLUC_R_SQUARED 0.226, read-out: LUCIFERASE INFECTION ASSAY - IC50) is 6.85 µM.
For the compound `O=C(/C=C/c1cccnc1)c1ccc(S(=O)(=O)NCc2ccccc2Cl)cc1`, the IC90 stood at 5.93 µM. The IC50 (FFLUC_HILL_SLOPE 11, FFLUC_R_SQUARED 0.373, HEPG2TOX_HILL_SLOPE 8.76, HEPG2TOX_R_SQUARED 0.66, PBLUC_HILL_SLOPE 5.1, PBLUC_R_SQUARED 0.695, read-out: LUCIFERASE INFECTION ASSAY - IC50) amounted to 3.85 µM.
Take `COc1cccc(OC)c1C(=O)Nc1cc2c(c([N+](=O)[O-])c1C)C(C)(C)CC2(C)C`: the IC90 was determined as 6.98 µM. Besides, where the note is “FFLUC_HILL_SLOPE 10.9, FFLUC_R_SQUARED 0.163, HEPG2TOX_HILL_SLOPE 1.05, HEPG2TOX_R_SQUARED 0.731, PBLUC_HILL_SLOPE 1.82, PBLUC_R_SQUARED 0.597, read-out: LUCIFERASE INFECTION ASSAY - IC50”, the IC50 came to 2.09 µM.
Regarding `O=C1C(=O)N(CCc2ccccc2)c2c1cccc2C(F)(F)F`, the IC90 is 5.96 µM. In addition, the IC50 (FFLUC_HILL_SLOPE 10.6, FFLUC_R_SQUARED 0.162, HEPG2TOX_HILL_SLOPE 9.24, HEPG2TOX_R_SQUARED 0.771, PBLUC_HILL_SLOPE 5.11, PBLUC_R_SQUARED 0.647, read-out: LUCIFERASE INFECTION ASSAY - IC50) was found to be 3.88 µM.
On to `c1ccc(CSc2ncc(-c3nnnn3-c3ccccc3)c(-c3ccccc3)n2)cc1`, for which the IC90 was more than 7.81 µM. Besides, the IC50 (FFLUC_HILL_SLOPE 10.9, FFLUC_R_SQUARED 0.438, read-out: LUCIFERASE INFECTION ASSAY - IC50) is more than 7.81 µM.
On to `Cc1nn(C)c2nc(-c3ccco3)cc(C(=O)Nc3ccnn3Cc3ccc(Cl)cc3Cl)c12`, for which the IC90 is more than 10 µM. Under “FFLUC_HILL_SLOPE 11.1, FFLUC_R_SQUARED 0.205, read-out: LUCIFERASE INFECTION ASSAY - IC50”, the IC50 was more than 10 µM.
For the compound `CN(C)S(=O)(=O)c1cccc(NC(=S)N/N=C/c2cc3c(cc2[N+](=O)[O-])OCO3)c1`, the IC90 is more than 10 µM. For the same compound, for the setting “FFLUC_HILL_SLOPE 11, FFLUC_R_SQUARED 0.0812, read-out: LUCIFERASE INFECTION ASSAY - IC50”, the IC50 is more than 10 µM.
